In patent US6689742B1, “NY-ESO-1 peptide derivatives, and uses thereof” (Chancellors, Masters and Scholars of the University of …, priority 2000, dated 2004):

Key:
[1] = tested on: ESO1 specific CTL clone ESO5; experiment: recognition by specific CTLs, 51Cr release from peptide-pulsed T2 cells; type: cell-based, human; conditions: for EC50: T2 targets, CTL clone ESO5, lymphocyte:target ratio 30:1, 4 hours, read-out: Peptide ([nM] 50%), concentration giving 50% maximal activity; for Relative antigenic activity: [nM] 50% of SEQ ID NO: 2 divided by [nM] 50% of test peptide
Protocol: As indicated, supra, the peptides described herein were tested for recognition by specific CTLs. In these experiments, target T2 cells were labelled with ^51Cr for 1 hour, at 37° C., and then washed two times. Sample (1000 labelled cells in 50 μl) were then incubated with varying concentrations of peptide, for 15 minutes. Effector cells (50 μl) were then added. These effector cells are ESO1 specific CTL clone ESO5. The lymphocyte: target ratio was 30:1. Chromium release was measured after 4 hours of incubation at 37° C., by testing 100 μl supernatant samples.
Specific percent lysis was calculated as: [formula]

clonal CTLs = experiment: recognition of peptide-pulsed T2 cells by clonal CTLs, 51Cr release; type: cell-based, human; conditions: T2 cells pulsed with varying concentrations of peptide
Protocol: Varying concentrations of peptide were used to pulse T2 cells. […] The same ^51Cr release assay described supra was used. Prior to testing the CTLs, these were assayed to determine if they each expressed a single T cell receptor.

[2] = tested on: HLA-A2 restricted NY-ESO-1 specific CTLs (CTL NW38-IVS-1); experiment: 51Cr release cytotoxicity assay, peptide-pulsed T2 cells with CTL NW38-IVS-1; type: cell-based, human; conditions: 10 ug/ml peptide, effector/target ratio 90:1, four hours
Protocol: Samples of T2 cells were labelled with 100 uCi of Na(^51Cr)O4, using standard methods, and were then washed three times, followed by incubation with 10 ug/ml peptide and 2.5 ug/ml of β2-microglobulin. Incubation was for one hour, at room temperature. Then responder cells (100 ul of a suspension of CTL NW38-IVS-1) were added, at an effector/target ratio of 90:1, and incubated for four hours in a water saturated atmosphere, with 5% CO2, at 37° C. Then, plates were centrifuged at 200×g for five minutes, 100 ul of supernatant was removed, and radioactivity was measured. The percentage of ^51Cr release was determined in accordance with known strategies.

[3] = tested on: NY-ESO-1 specific T cells (tumor infiltrating lymphocytes); experiment: IFN-γ ELISPOT of short term tumor infiltrating lymphocyte culture with T2 cells plus peptide; type: cell-based, human; conditions: 1 μM peptide, 2×10^3 cultured cells/well, 5×10^4 T2 cells/well; control cultures 19 spots
From the text: Samples of lymph nodes or metastatic lesions were taken from a patient who presented slowly progressive melanoma with recurrent metastases, all of which were localized to the same paravertebral region. […] Further, the patient's serum indicated high titer of anti-NY-ESO-1 antibodies.
The surgically resected lymph nodes or metastatic lesions were finely minced in sterile, RPMI 1640 medium that had been supplemented with 10% fetal calf serum. Suspensions of cells were placed in 24-well tissue culture plates, in 2 ml of Iscove's Dulbecco medium, supplemented with 0.24 mM Asn, 0.55 mM Arg, 1.5 mM Gln, 10% pooled human A+ serum, 100 U/ml IL-2, and 10 ng/ml of IL-7. The cells were cultured for 2-3 weeks, prior to being assayed via IFN-γ ELISPOT, in accordance with Czerkinsky, et al, J. Immunol. Meth 110:29 ([…]), incorporated by reference. In brief, 2×10^3 cells/well of the short term culture referred to supra were combined with either 5×10^4 T2 cells/well, or the same number of T2 cells, plus 1 μM of one of SEQ ID NOS: 1-3. Each culture was run in duplicate.

HLA-A*0201 molecules = HLA-A*0201 molecules (Homo sapiens, UniProt P04439, D140Y/D185E/D98H/E176V/E277Q/G131W/G231S/I119V/I121R/I166T/I218V/L300P/L318F/N151K/N90K/P208A/P217A/Q86G/Q94H/R138H/R169H/T345S); experiment: functional competition binding assay (inhibition of lysis of SEQ ID NO: 4 pulsed T2 cells by CTL clone LAU 132/2)
Protocol: The functional competition binding assay employed is that taught by Valmori, et al., J. Immunol 161:6956-6962 (1998), incorporated by reference, but elaborated upon herein.
(SEQ ID NO: 4) is known to bind to HLA-A*0201 molecules, and to provoke lysis by an HLA-A*0201 restricted CTL clone, known as LAU 132/2. […] T2 cells were labelled with ^51Cr, in the presence of anti class I monoclonal antibody W6/32. […] Then, a suboptimal dose (1 nM) of SEQ ID NO: 4 (50 μl) were added, together with 50 μl of the T cells (5000 cells/well). ^51Cr release was measured after 4 hours incubation at 37° C. […] In order to facilitate the comparison, relative competitive activity of each peptide was calculated as [nM] […] 50% value determined for the test peptides.

[4] = tested on: NY-ESO-1 157-165 specific CTLs; experiment: CTL assays of modified peptides; type: cell-based, human
Protocol: All of these peptides were tested in CTL assays of the type described supra.

[5] = tested on: SEQ ID NO: 2 specific CTLs; experiment: killing specificity of tetramer-sorted CTLs, 51Cr release; type: cell-based, human; conditions: 1 μM peptide, effector/target ratios 1:1 and 0.3:1; unpulsed T2 not killed
Protocol: These tetramers were then used to stain a sample of cells taken from a patient who had been diagnosed previously as having a NY-ESO-1 positive melanoma. See Dunbar, et al., J. Immunol 162(12):6959-62(1999) and Ser. No. 09/049,850, filed Mar. 27, 1998, incorporated by reference. In brief, however, peripheral blood lymphocyte (“PBL”) samples were stained with tetramers for 15 minutes at 37° C., followed by washing in PBS/1% FCS at 37° C., followed by incubation with a labelled, anti-CD8 antibody for 30 minutes, on ice. The cells were then washed three times, in ice cold PBS/1% FCS, and were then analyzed via flow cytometry.
The CTLs described supra were then tested for killing specificity. […] Killing was determined using the ^51Cr release assay described supra.

CTLs = experiment: 51Cr release assay in presence of reducing agent (DTT or TCEP); type: cell-based, human; conditions: 200 μM DTT or TCEP
[6] = tested on: NA8-MEL (A2+, NY-ESO-1-) cells; experiment: 51Cr release assay, CTL ESO5 on A2+ melanoma cell lines with or without peptide; type: cell-based, human; conditions: exogenously added peptide; not lysed when absent
Protocol: Cell lines NA8-MEL (A2^+, NY-ESO-1^−), SK-MEL37 (A2^+, NY-ESO-1^+), and Me 275 (A2^+, NY-ESO-1^+) were tested, in ^51Cr release assays, as described supra.

SLLMWITQCFL [SEQ ID NO: 1, natural NY-ESO-1 peptide]
EC50 [1]: 50 nM | Relative antigenic activity [1]: 0.012 | recognition by all T cells (clonal CTLs) (clonal CTLs): failed to recognize | stimulation of HLA-A2 restricted NY-ESO-1 specific CTLs (51Cr release) [2]: three best stimulators | mean number of spots (IFN-γ ELISPOT) [3]: 396 spots

QLSLLMWIT [SEQ ID NO: 3, natural NY-ESO-1 peptide]
EC50 [1]: 50 nM | Relative antigenic activity [1]: 0.012 | recognition by all T cells (clonal CTLs) (clonal CTLs): recognized | stimulation of HLA-A2 restricted NY-ESO-1 specific CTLs (51Cr release) [2]: three best stimulators | fold less efficient competitor than SEQ ID NO: 4 (HLA-A*0201 molecules): 100 fold

SLLMWITQI (Mutagen 9 Synthesized. At position 9, of SEQ ID NO2,Cys is replaced by Ile) [SEQ ID NO: 12]
increase of recognition by NY-ESO-1 157-165 specific CTLs as compared to SEQ ID NO: 2 [4]: about 1000 fold

SLLMWITQC [SEQ ID NO: 2, natural NY-ESO-1 peptide, parental peptide]
killing of peptide-pulsed T2 cells by CTLs [5]: killed | increase of antigenicity in the presence of reducing agent (CTLs): 10 fold | recognition by CTL, in words ([1]; CTL clone ESO5, compared with parental peptide SEQ ID NO: 2): optimally recognized antigenic peptide | EC50 [1]: 0.6 nM | recognition by all T cells (clonal CTLs) (clonal CTLs): recognized | lysis of NA8-MEL by CTL ESO5 when peptide added [6]: lysed | stimulation of HLA-A2 restricted NY-ESO-1 specific CTLs (51Cr release) [2]: three best stimulators | mean number of spots (IFN-γ ELISPOT) [3]: 424 spots

SLLMWITQCF (listed as Homo sapiens) [SEQ ID NO: 11]
recognition by all T cells (clonal CTLs) (clonal CTLs): recognized

SLLMWITQL [SEQ ID NO: 7]
EC50 [1]: 0.01 nM | increase of recognition by NY-ESO-1 157-165 specific CTLs as compared to SEQ ID NO: 2 [4]: about 1000 fold

157-164: a peptide consisting of the first 8 amino acids of SEQ ID NO: 11 (SLLMWITQ; listed as Homo sapiens)
recognition by all T cells (clonal CTLs) (clonal CTLs): failed to recognize

SLLMWITQCI (Mutagen 10 Synthesized. At position 10 of SEQ ID NO 11, Phe is replaced by Ile) [SEQ ID NO: 14]
recognition compared to SEQ ID NO: 2, in words [4]: recognized more efficiently
